Reference: patent publication US20140163226A1, “NOVEL PYRIMIDINE DERIVATIVE AND PHARMACEUTICAL COMPOSITION INCLUDING SAME AS AN ACTIVE INGREDIENT” (HANMI PHARMACEUTICAL CO., LTD., priority 2011, published 2014)

Target: T1, DGAT1 (Homo sapiens, UniProt O75907)
T1 construct: host or cells: HepG2 cell homogenate (supernatant after sonication and 2000×g centrifugation)
T1 sequence (O75907 1-488): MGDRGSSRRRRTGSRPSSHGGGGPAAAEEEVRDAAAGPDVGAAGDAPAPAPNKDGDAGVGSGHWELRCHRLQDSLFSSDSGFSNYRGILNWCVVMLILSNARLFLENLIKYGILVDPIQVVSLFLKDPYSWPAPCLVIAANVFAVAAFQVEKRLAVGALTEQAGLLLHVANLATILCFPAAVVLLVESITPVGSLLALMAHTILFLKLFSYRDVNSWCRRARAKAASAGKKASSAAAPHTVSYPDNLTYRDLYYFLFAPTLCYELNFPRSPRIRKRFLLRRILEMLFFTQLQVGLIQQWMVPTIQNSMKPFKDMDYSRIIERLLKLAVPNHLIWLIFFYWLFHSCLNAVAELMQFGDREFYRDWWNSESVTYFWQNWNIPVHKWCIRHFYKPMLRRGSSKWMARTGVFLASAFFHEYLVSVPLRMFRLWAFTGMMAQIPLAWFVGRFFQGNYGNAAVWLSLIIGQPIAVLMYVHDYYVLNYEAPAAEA
Experiment: Assay for inhibition of DGAT1 activity (IC50), in vitro enzymatic assay using homogenates of HepG2 cell line
Type: biochemical
Details: inhibitory activity against DGAT1; HepG2 protein (25 μg), 1,2-dioleoyl-sn-glycerol (30 μM), 14C oleoyl coenzyme A (10 μM), room temperature, 60 mins
Procedure: In order to identify DGAT1 inhibitors, in vitro enzymatic assays were performed by using homogenates of HepG2 cell line (ATCC, USA, HB-8065). Briefly stated, HepG2 cells were inoculated in 10% FBS-supplemented medium at 1.0×10^7 cells/well, cultured at 37° C., and harvested 72 hrs later. The harvested cells were lysed by ultrasonic treatment, and centrifuged for at 4° C. (2000×g, 10 mins) to remove any uncracked cells and impurities. The supernatant thus formed was obtained, and stored at −70° C. after its protein contents were quantitatively analyzed.
DGAT1 activation was assayed by a modification of the method described by Coleman (Methods in Enzymology, 1992, 209, 98-102). The compound of the present invention ([…]) was incubated with HepG2 protein (25 μg), MgCl2 (150 mM) and 1,2-dioleoyl-sn-glycerol (30 μM) in a total assay volume of 200 μL in plastic tubes.
The reaction was started by adding ^14C oleoyl coenzyme A (10 μM final concentration) and incubated at room temperature for 60 mins. The reaction was ended when a mixed solution (300 μL) of 2-propanol and heptane (7:1) was added thereto. Radioactive triolein product was separated into the organic phase by adding heptane (200 μL) and 1.0 M carbonate buffer (200 μL, pH 9.5). DGAT1 activity was quantified by counting aliquots of the upper heptane layer by liquid […].

IC50: < 5 nM
SMILES: O=C(O)Cc1ccc(-c2csc3c(-c4ccc(Nc5nc6ccccc6s5)cc4)ncnc23)cc1 [Example 61, 2-(4-(4-(4-(benzo[d]thiazol-2-ylamino)phenyl)thieno[3,2-d]pyrimidin-7-yl)phenyl)acetic acid]
